Test results published in PMC6611794, “Development of a high-throughput strategy for discovery of potent analogues of antibiotic lysocin E” (Nature Communications, 2019).
Like-named read-outs stand apart in the source and are kept apart here. Where a SMILES comes first, the peptide text is derived from it. Bridges are numbered along the chain shown (N, C = ends). [ ]: non-standard residue; d: D form. The star is where a group is joined. Hexanoyl(3R-OH,5-Me) = CC(C)C[C@@H](O)CC(=O)*; dNMeF = CN[C@H](Cc1ccccc1)C(=O)O; dOrn = NCCC[C@@H](N)C(=O)O

How the values were obtained:
[1] = system: S. aureus Smith ATCC 13709; experiment: Antimicrobial activity assay of bead-derived peptides (one-bead, microscale); assay type: cell-based, Staphylococcus aureus; design: key to antimicrobial activity: ++: inhibition; +: partial inhibition; -: no inhibition; conditions: 85% of one-bead-derived crude peptide; 40 μL Mueller Hinton Broth with 10% calf serum; 37 °C, 18 h
Protocol: Finally, a microscale antimicrobial assay was developed to evaluate the activity of 1 in solution phase.
Antimicrobial activity assay of bead-derived peptides. To the crude peptides in the 96-well round-bottom plate was added DMSO (1 µL/well). To the solution of peptides in each well was added a suspension of S. aureus Smith ATCC 13709 strain in 10% calf serum containing cation adjusted Müller Hinton Broth [40 µL, 2 ×10^5 colony forming units (CFU) , 21 g/L Müller Hinton Broth (Difco), 5 0 mg/L Ca2+ (adjusted with CaCl2• 2H2O), and 25 mg/L Mg 2+ (adjusted with MgCl 2•6H2O)]. The plate was incubated at 37 °C for 18 h, and the precipitation of the grown cells was examined. […]

[2] = Liposomal membrane disruption assay (carboxyfluorescein LUVs); assay type: biochemical
Protocol: Preparation of LUVs consisting of PC/PG/MK-4 or PC/PG/UQ-10. To a solution of egg yolk phosphatidylcholine (9.48 mg, 12.4 µmol) and egg yolk phosphatidylglycerol (9.66 mg, 12.4 µmol) in CHCl3 (0.208 mL) was added a solution of MK-4 (2) or UQ-10 (3) (0.313 µmol) in CHCl3 (21.8 µL). The solution was concentrated, and dried under vacuum to for m a lipid thin film. The thin film was hydrated and suspended in carboxyfluorescein-containing buffer solution (0.500 mL, 5 mM HEPES, 20 mM carboxyfluorescein , pH 7.5) by vortexing and sonication. After five-times freeze-thaw cycles, the lipid suspension was extruded 19 times through a polycarbonate filter with 0.40 µm of pore siz e in the diameter.
The external carboxyfluorescein -containing buffer was replaced with a carboxyfluorescein -free buffer solution (20 mM HEPES, 1 mM EDTA, pH 7.5) through size exclusion chromatography using disposable PD -10 column. Concentration of egg yolk phosphatidylcholine was determined by using Phospholipid C -Test Wako.
The final concentration of egg yolk phosphatidylcholine was adjusted to 4.0 µM with the carboxyfluorescein -free buffer solution, and the solution was used for membrane disruption ass ay.
(§1) Membrane disruption assay. Peptides 1, A1–A22, B1–B5, and C1–C5 were diluted with MeOH/H2O (4/6) to various concentrations as 5-fold serial dilutions. The solution of peptides (2 µL/well) and the carboxyfluorescein-encapsulated LUV suspension (200 µL/well) were mixed in black polystyrene flat-bottom 96-well plates. The final concentration of peptides ranged from 2970 nM to 0.950 nM. The plates were vortexed at room temperature for 30 min, and then fluorescence of carboxyfluorescein (Ex. 490 nm/Em. 517 nm) of each well was measured at room temperature on Gemini EM microplate reader. Trion X-100/H2O (5/95, 2 µL), MeOH/H2O (4/6, 2 µL), and the LUV suspension were mixed in each plate to determine 100% lysis. MeOH/H2O (4/6, 2 µL) and the LUV suspension were mixed in each plate to determine 0% lysis.
(§2) The membrane disruption activities of tested peptides (I) were normalized against 100% lysis by Triton X -100 […]
(§3) (Imax) and 0% lysis by MeOH/H2O (4/6) (I0) as following, where Ix is the fluorescence intensity (Supplementary Equation 2).
(§4) I = 100 × (Ix – I0) / (Imax – I0) (2)
(§5) The membrane-disrupting activities were evaluated as half-maximal response (EC50, nM) values by means of three replicates. Sigmoidal curve fittings were performed on R2 with drc package (Supplementary Figs S7–S9).3 Two-parameter logistic model was applied for the fitting.

[3] = as above; assay type: biochemical; remark: listed apart in the source
Protocol: Preparation of LUVs consisting of PC/PG. Carboxyfluorescein-encapsulated large unilamellar vesicles (LUVs) were prepared according to the thin-film hydration method, followed by extrusion through Nuclepore polycarbonate filters (GE Healthcare) mounted in the mini-extruder apparatus (Avanti Polar Lipids). A solution of egg yolk phosphatidylcholine (9.60 mg, 12.5 µmol) and egg yolk phosphatidylglycerol (9.78 mg, 12.5 µmol) in CHCl3 (0.505 mL) was concentrated, and dried under vacuum to form a lipid thin film. The thin film was hydrated and suspended in carboxyfluorescein-containing buffer solution [0.500 mL, 5 mM 4-(2-hydroxyethyl)-1-piperazineethanesulfonic acid (HEPES), 20 mM carboxyfluorescein, pH 7.5] by vortexing and sonication. After five -times freeze-thaw cycles, the lipid suspension was extruded 19 times through a polycarbonate filter with 0.40 µm of pore size in the diameter. The external carboxyfluorescein -containing buffer was replaced w ith a carboxyfluorescein -free buffer solution [20 mM HEPES, 1 mM ethylenediaminetetraacetic acid (EDTA), pH 7.5] through size exclusion chromatography using disposable PD-10 column (GE Healthcare). Concentration of egg yolk phosphatidylcholine was determined by using Phospholipid C-Test Wako (Fujifilm Wako Pure Chemical). The final concentration of egg yolk phosphatidylcholine was adjusted to 4.0 µM with the carboxyfluorescein-free buffer solution, and the solution was used for membrane disruption assay. […]
Membrane disruption assay. […]
as §1, with “to” for “Membrane disruption assay. Peptides 1, A1–A22, B1–B5, and C1–C5 were diluted with MeOH/H2O (4/6) to”
as §2, §3, §4, §5

[4] = 30 min, room temperature, mean ± SD of three independent experiments, read-out: EC50 PC/PG/3
[5] = PC/PG/3 LUVs, 1st experiment, read-out: EC50 PC/PG/3 1st
[6] = PC/PG/3 LUVs, 2nd experiment, read-out: EC50 PC/PG/3 2nd
[7] = PC/PG/3 LUVs, 3rd experiment, read-out: EC50 PC/PG/3 3rd
[8] = 30 min, room temperature, mean ± SD of three independent experiments, read-out: EC50 PC/PG
[9] = PC/PG LUVs, 1st experiment, read-out: EC50 PC/PG 1st
[10] = PC/PG LUVs, 2nd experiment, read-out: EC50 PC/PG 2nd
[11] = PC/PG LUVs, 3rd experiment, read-out: EC50 PC/PG 3rd

EC50 [2, 4] [nM]	EC50 [2, 5] [nM]	EC50 [2, 6] [nM]	EC50 [2, 7] [nM]	EC50 [3, 8] [nM]	EC50 [3, 9] [nM]	EC50 [3, 10] [nM]	EC50 [3, 11] [nM]	Structure (SMILES)	antimicrobial activity [1]
832 ± 243	892	1040	565	> 1500	> 1500	> 1500	> 1500	CC[C@H](C)[C@@H]1NC(=O)[C@@H](Cc2c[nH]c3ccccc23)NC(=O)[C@@H](CCCN)NC(=O)[C@H](CCC(=O)O)NC(=O)[C@@H](CCCNC(=N)N)NC(=O)[C@H](CC(C)C)NC(=O)[C@@H](Cc2ccccc2)N(C)C(=O)CNC(=O)[C@H](CC(=O)O)NC(=O)[C@@H](CCCNC(=N)N)NC(=O)[C@@H](NC(=O)C[C@H](O)CC(C)C)[C@@H](C)OC(=O)[C@H]([C@@H](C)O)NC1=O [Peptide A16] ({Hexanoyl(3R-OH,5-Me)}-T[dR]DG[dNMeF]L[dR]E[dOrn][dW]IT; ester 1-C)	+
> 1500	> 1500	> 1500	> 1500	> 1500	> 1500	> 1500	> 1500	CC[C@H](C)[C@@H]1NC(=O)[C@@H](Cc2c[nH]c3ccccc23)NC(=O)[C@@H](Cc2ccc(O)cc2)NC(=O)[C@H](CCC(=O)O)NC(=O)[C@@H](CCCNC(=N)N)NC(=O)[C@H](CC(C)C)NC(=O)[C@@H](Cc2ccccc2)N(C)C(=O)CNC(=O)[C@H](CC(=O)O)NC(=O)[C@@H](CCCNC(=N)N)NC(=O)[C@@H](NC(=O)C[C@H](O)CC(C)C)[C@@H](C)OC(=O)[C@H]([C@@H](C)O)NC1=O [Peptide A17] ({Hexanoyl(3R-OH,5-Me)}-T[dR]DG[dNMeF]L[dR]E[dY][dW]IT; ester 1-C)	+
